From patent publication US20240368209A1, “GEMCITABINE ANTICANCER DERIVATIVE AND ANTICANCER PHARMACEUTICAL USE” (ASCENTAWITS PHARMACEUTICALS, LTD., priority 2021, published 2024)
Where two headings read alike, the source gives them in different places.

Tested on: H460 non-small cell lung cancer human tumor cell line
Experiment: In vitro human tumor cell line cytotoxicity (proliferation) assay on H460, CTG, with or without AST-3021
Assay type: cell-based
Settings: for IC50: Homo sapiens
Experimental: In vitro human tumor cell line cytotoxicity assay was used.
In vitro proliferation data on the H460 non-small cell lung cancer human tumor cell line (cell line which highly expresses AKR1C3) is reported below in the compound table.
IC50 values were obtained with the following steps:
Specifically, exponentially growing cells were seeded at a density of 2×10^3 cells/100 μL/well in a 96-well plate and incubated at 37° C. in 5% CO2, 95% air and 100% relative humidity for 24 hours. The test compound was administered alone: 24 hours after cell plating, the compound acted alone, 99 μL of growth medium per well was added, and 1 μL of the compound prepared at 200× was added, and the plate was shaken gently to ensure even mixing, then placed into an incubator of 37° C., 5% CO2. After further cultivation for 72 hours, the number of live cells was detected using CTG. The CTG detection method was as follows: the cell plate to be tested was placed at room temperature to equilibrate for 30 minutes, and 100 μL of medium per well was discarded. 25 μL of CTG reagent (CellTiter-Glo® kit) per well was added, and the plate was placed in a high-speed shaker to oscillate for 2 minutes, and placed at room temperature in the dark for 30 minutes. The chemiluminescence signal value was read using a multimode microplate reader, with a read time of 1000 ms.
Similarly, in order to further verify that the compounds were activated by human AKR1C3 (aldosterone reductase family 1 member C3), the effect of some of the compounds on the proliferation of H460 cancer cells was tested with pretreatment with a specific AKR1C3 enzyme inhibitor AST-3021 (3 μM). The detailed experimental procedure was as follows: 24 hours after cell plating, 98 μL of growth medium per well was added, and 1 μL of 200×compound AST-3021 was added to each well, and the plate was shaken gently to ensure even mixing, and then placed into an incubator; after 2 hours, 1 μL of the test compound prepared at 200× was added, and the plate was shaken gently to ensure even mixing and then laced into an incubator of 37° C., 5% CO2. The inhibitor used was compound 36, i.e.
in Flanagan et al., Bioorganic and Medicinal Chemistry (2014), page 962-977, and is referred to as AST-3021 in this invention. The values measured in this case are values corresponding to +AST-3021 IC50 (nM) in Table 1.
The value corresponding to +AST-3021 IC50 (nM) divided by the value corresponding to IC50 (nM) is the specific activation ratio. The relative magnitude of the specific activation ratio can be used to evaluate whether this compound is a cytotoxic compound activated by human AKR1C3 (aldosterone reductase family 1 member C3): when the specific activation ratio is less than 1, it is considered that the compound is not activated by human AKR1C3 (aldosterone reductase family 1 member C3); when the specific activation ratio is greater than 1, it is considered that the compound is activated by human AKR1C3 (aldosterone reductase family 1 member C3), and the higher the value, the higher the activation degree and the selectivity of AKR1C3.

[1] = NCI-H460, compound alone, 72 hours, read-out: IC50
[2] = NCI-H460, pretreatment with AKR1C3 inhibitor AST-3021 (3 μM), read-out: +AST-3021 IC50

SMILES | specific activation ratio (+AST-3021 IC50/IC50) | IC50 [1] | IC50 [2]
CCN(CC)P(=O)(OCc1ccc([N+](=O)[O-])c(Oc2ccc(-c3ccc(F)cc3)c(F)c2)c1)OCC1OC(n2ccc(N)nc2=O)C(F)(F)C1O (stereo not drawn) [Compound D2, reference compound] | 45.1 | 96.9 nM | 4370 nM
Nc1ccn(C2OC(COP(=O)(OCc3ccc([N+](=O)[O-])c(Oc4ccc(-c5ccc(F)cc5)c(F)c4)c3)Oc3ccccc3)C(O)C2(F)F)c(=O)n1 (stereo not drawn) [Compound D6, reference compound] | 0.54 | 20.6 nM | 11.2 nM
Nc1ccn(C2OC(COP(=O)(OCc3ccc([N+](=O)[O-])c(Oc4ccc(C(F)(F)F)cc4)c3)Oc3ccccc3)C(O)C2(F)F)c(=O)n1 (stereo not drawn) [Compound D7, reference compound] | 0.77 | 50.3 nM | 38.9 nM
CC(OP(=O)(OCC1OC(n2ccc(N)nc2=O)C(F)(F)C1O)N(C)C)c1ccc([N+](=O)[O-])c(Oc2ccc(-c3ccc(F)cc3)c(F)c2)c1 (stereo not drawn) [Compound D9, reference compound] | 56.5 | 67.8 nM | 3830 nM
CNP(=O)(OCc1ccc([N+](=O)[O-])c(Oc2ccc(-c3ccc(F)cc3)c(F)c2)c1)OCC1OC(n2ccc(N)nc2=O)C(F)(F)C1O (stereo not drawn) [Compound H1] | 24.2 | 29.4 nM | 712 nM
CCNP(=O)(OCc1ccc([N+](=O)[O-])c(Oc2ccc(-c3ccc(F)cc3)c(F)c2)c1)OCC1OC(n2ccc(N)nc2=O)C(F)(F)C1O (stereo not drawn) [Compound H2] | 47.8 | 19.9 nM | 951 nM
Nc1ccn(C2OC(COP(=O)(NCCBr)OCc3ccc([N+](=O)[O-])c(Oc4ccc(-c5ccc(F)cc5)c(F)c4)c3)C(O)C2(F)F)c(=O)n1 (stereo not drawn) [Compound H4] | 6.2 | 5.15 nM | 31.7 nM
CNP(=O)(OCc1ccc([N+](=O)[O-])c(Oc2ccc(C(F)(F)F)cc2)c1)OCC1OC(n2ccc(N)nc2=O)C(F)(F)C1O (stereo not drawn) [Compound H5] | 4.2 | 117 nM | 499 nM
CCNP(=O)(OCc1ccc([N+](=O)[O-])c(Oc2ccc(C(F)(F)F)cc2)c1)OCC1OC(C2N=CC(N)=NC2=O)C(F)(F)C1O (stereo not drawn) [Compound H6] | 12.9 | 178 nM | 2300 nM
CC(C)CNP(=O)(OCc1ccc([N+](=O)[O-])c(Oc2ccc(-c3ccc(F)cc3)c(F)c2)c1)OCC1OC(C2N=CC(N)=NC2=O)C(F)(F)C1O (stereo not drawn) [Compound H7] | 61.3 | 26.8 nM | 1640 nM
NC1=NC(=O)C(C2OC(COP(=O)(NCc3ccccc3)OCc3ccc([N+](=O)[O-])c(Oc4ccc(-c5ccc(F)cc5)c(F)c4)c3)C(O)C2(F)F)N=C1 (stereo not drawn) [Compound H8] | 44.8 | 67.5 nM | 3020 nM
NC1=NC(=O)C(C2OC(COP(=O)(NCc3ccccc3)OCc3ccc([N+](=O)[O-])c(Oc4ccc(C(F)(F)F)cc4)c3)C(O)C2(F)F)N=C1 (stereo not drawn) [Compound H9] | 23.2 | 78.2 nM | 1810 nM
CC(C)CNP(=O)(OCc1ccc([N+](=O)[O-])c(Oc2ccc(C(F)(F)F)cc2)c1)OCC1OC(C2N=CC(N)=NC2=O)C(F)(F)C1O (stereo not drawn) [Compound H10] | 27.7 | 105 nM | 2900 nM
CCNP(=O)(OCc1ccc([N+](=O)[O-])c(Oc2ccc(C(=O)N3CCCCC3)cc2)c1)OCC1OC(n2ccc(N)nc2=O)C(F)(F)C1O (stereo not drawn) [Compound H13] | 9.4 | 393 nM | 3680 nM
CCNP(=O)(OCc1ccc([N+](=O)[O-])c(Oc2ccc(C(=O)N3CCC(C(F)(F)F)CC3)cc2)c1)OCC1OC(n2ccc(N)nc2=O)C(F)(F)C1O (stereo not drawn) [Compound H14] | 1.9 | 1770 nM | 3300 nM
CCNP(=O)(OCc1ccc([N+](=O)[O-])c(Oc2cccc(C(=O)N3CCCCC3)c2)c1)OCC1OC(n2ccc(N)nc2=O)C(F)(F)C1O (stereo not drawn) [Compound H15] | 5.0 | 486 nM | 2420 nM
CCNP(=O)(OCc1ccc([N+](=O)[O-])c(Oc2cccc(C(=O)N3CCC(C(F)(F)F)CC3)c2)c1)OCC1OC(n2ccc(N)nc2=O)C(F)(F)C1O (stereo not drawn) [Compound H16] | 8.9 | 377 nM | 3370 nM
Nc1ccn(C2OC(COP(=O)(NC3CCCCC3)OCc3ccc([N+](=O)[O-])c(Oc4ccc(-c5ccc(F)cc5)c(F)c4)c3)C(O)C2(F)F)c(=O)n1 (stereo not drawn) [Compound H17] | 27.2 | 397 nM | 10800 nM
Nc1ccn(C2OC(COP(=O)(NC3CCCCC3)OCc3ccc([N+](=O)[O-])c(Oc4ccc(C(F)(F)F)cc4)c3)C(O)C2(F)F)c(=O)n1 (stereo not drawn) [Compound H18] | 3.7 | 461 nM | 1700 nM
CCNP(=O)(OCc1ccc([N+](=O)[O-])c(Oc2ccc3ncccc3c2)c1)OCC1OC(n2ccc(N)nc2=O)C(F)(F)C1O (stereo not drawn) [Compound H19] | 3.4 | 150 nM | 510 nM
CCNP(=O)(OCc1ccc([N+](=O)[O-])c(Oc2ccc3nc(C)sc3c2)c1)OCC1OC(n2ccc(N)nc2=O)C(F)(F)C1O (stereo not drawn) [Compound H20] | 6.2 | 232 nM | 1430 nM
CCNP(=O)(OCC1OC(n2ccc(N)nc2=O)C(F)(F)C1O)OC(C)c1ccc([N+](=O)[O-])c(Oc2ccc(-c3ccc(F)cc3)c(F)c2)c1 (stereo not drawn) [Compound H21] | 34.8 | 127 nM | 4410 nM
CC(OP(=O)(NCCBr)OCC1OC(n2ccc(N)nc2=O)C(F)(F)C1O)c1ccc([N+](=O)[O-])c(Oc2ccc(-c3ccc(F)cc3)c(F)c2)c1 (stereo not drawn) [Compound H22] | 19.2 | 124 nM | 2370 nM
CNP(=O)(OCC1OC(n2ccc(N)nc2=O)C(F)(F)C1O)OC(C)c1ccc([N+](=O)[O-])c(Oc2ccc(C(F)(F)F)cc2)c1 (stereo not drawn) [Compound H23] | 29.8 | 379 nM | 11300 nM
CCNP(=O)(OCC1OC(n2ccc(N)nc2=O)C(F)(F)C1O)OC(C)c1ccc([N+](=O)[O-])c(Oc2ccc(C(=O)N3CCCCC3)cc2)c1 (stereo not drawn) [Compound H24] | 19.1 | 1120 nM | 21400 nM
CCNP(=O)(OCC1OC(n2ccc(N)nc2=O)C(F)(F)C1O)OC(C)c1ccc([N+](=O)[O-])c(Oc2cccc(C(=O)N3CCCCC3)c2)c1 (stereo not drawn) [Compound H25] | 9.6 | 515 nM | 4940 nM
CCNP(=O)(OCc1ccc([N+](=O)[O-])c(Oc2ccc(-c3ccc(F)cn3)cc2)c1)OCC1OC(n2ccc(N)nc2=O)C(F)(F)C1O (stereo not drawn) [Compound H28] | 20.4 | 233 nM | 4760 nM
Nc1ccn(C2OC(COP(=O)(NC3CCCC3)OCc3ccc([N+](=O)[O-])c(Oc4ccc(-c5ccc(F)cc5)c(F)c4)c3)C(O)C2(F)F)c(=O)n1 (stereo not drawn) [Compound H29] | 47.17 | 82.2 nM | 3880 nM
